Test results: patent US9221832B2, “Heterocyclic amide derivatives as P2X7 receptor antagonists” (ACTELION PHARMACEUTICALS LTD., priority 2011, dated 2015)

Target: human recombinant P2X7 receptor (Homo sapiens (Human), UniProt Q99572)
Assay: YO-PRO assay: P2X7 receptor antagonistic activity
Type: cell-based
Conditions: HEK cells expressing human P2X7
Description: The P2X7 receptor antagonistic activity of the compounds of formula (I) is determined in accordance with the following experimental method.
Cell Line Generation and YO-PRO Assay
Cell line generation was performed in general according to established molecular cloning protocols. Specifically, RNA was extracted from human whole blood using the Qiagen RNeasy kit (Qiagen, CH) according to the manufacturer's instructions. Subsequently cDNA was made (Superscript II, Invitrogen AG, CH) and the human P2X7 gene (genbank ref. BC011913) was amplified with the following primers: […] and […]. The amplified sequence was subsequently ligated into a pcDNA3.1 (+) NotI, NheI digested plasmid. […] Following a 24 h exposure to DNA, cells were trypsinized and re-seeded at low density in the presence of 250 μg Geneticin. Geneticin resistant cells were then selected during two consecutive rounds of cloning by serial limiting dilution with visual inspection. Individual clones were screened for P2X7 expression by applying ATP and recording the resultant uptake of YO-PRO1. Specific cell clones were chosen based on RNA and protein expression. HEK cells stably expressing P2X7 were used to screen drugs using the YO-PRO1 assay. Cells were grown to confluency in adherent culture at 37° C. in a humidified 5% CO2 incubator (split 1/5 every 3-4 days with DMEM, 10% FCS, 1% Penicillin/Streptomycin, 250 μg/ml Geneticin). Adherent cells were detached by incubation with Trypsine (1 ml per 165 cm^2 dish) for 2 minutes, then washed off with 10 ml PBS (without Mg^2+ and Ca^2+), and resuspended in DMEM, 10% FCS, 1% Penicillin/Streptomycin, no Geneticin. […] During this time period, four time points were taken. Each time point comprised the average of several measurements made within a few seconds. […] The FLIPR tetra was equipped with Molecular Devices Screen Works system control software to define and run experimental protocols. […] For IC50 measurements the maximum intensity is plotted against the concentration of compound to determine IC50 values.

Chain of human recombinant P2X7 receptor (Q99572 whole entry): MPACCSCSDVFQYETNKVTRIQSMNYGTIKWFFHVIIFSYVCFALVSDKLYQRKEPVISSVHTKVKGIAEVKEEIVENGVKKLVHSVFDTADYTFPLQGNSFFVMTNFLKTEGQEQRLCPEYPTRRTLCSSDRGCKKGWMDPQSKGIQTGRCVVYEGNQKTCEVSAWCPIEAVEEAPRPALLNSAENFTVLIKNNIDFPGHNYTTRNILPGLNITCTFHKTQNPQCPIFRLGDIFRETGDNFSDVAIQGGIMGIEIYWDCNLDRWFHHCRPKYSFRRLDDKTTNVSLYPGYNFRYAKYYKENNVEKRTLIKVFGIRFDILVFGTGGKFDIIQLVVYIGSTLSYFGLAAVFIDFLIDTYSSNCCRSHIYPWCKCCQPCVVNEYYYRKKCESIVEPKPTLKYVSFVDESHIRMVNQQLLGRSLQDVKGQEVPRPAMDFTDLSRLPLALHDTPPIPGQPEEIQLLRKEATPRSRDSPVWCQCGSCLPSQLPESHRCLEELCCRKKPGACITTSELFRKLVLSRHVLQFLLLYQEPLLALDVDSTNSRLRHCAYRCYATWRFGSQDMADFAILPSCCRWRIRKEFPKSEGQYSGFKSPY

Row | SMILES | IC50
1 | N#Cc1ccc(CC(=O)NC2COc3ncccc32)c(Cl)c1 (racemic) [Example 96, rac-2-(2-Chloro-4-cyano-phenyl)-N-(2,3-dihydro-furo[2,3-b]pyridin-3-yl)-acetamide] | 123 nM
2 | O=C(NC1COc2ncccc21)C(CN1CCCC1)c1ccc(Cl)cc1Cl (stereo not drawn) [Example 81, 2-(2,4-Dichloro-phenyl)-N-2,3-dihydro-furo[2,3-b]pyridin-3-yl-3-pyrrolidin-1-yl-propionamide] | 1970 nM
3 | COc1ccccc1CC(=O)NC1COc2ncccc21 (racemic) [Example 12, rac-N-(2,3-Dihydro-furo[2,3-b]pyridin-3-yl)-2-(2-methoxy-phenyl)-acetamide] | > 6000 nM
4 | CCC(C(=O)NC1COc2ncccc21)c1ccc(Cl)cc1Cl (stereo not drawn) [Example 84, 2-(2,4-Dichloro-phenyl)-N-2,3-dihydro-furo[2,3-b]pyridin-3-yl-butyramide] | 55 nM
5 | N#Cc1cccc(CC(=O)NC2COc3ncccc32)c1Cl (racemic) [Example 75, rac-2-(2-Chloro-3-cyano-phenyl)-N-(2,3-dihydro-furo[2,3-b]pyridin-3-yl)-acetamide] | 22 nM
6 | CC(C(=O)NC1COc2ncccc21)c1ccc(Cl)cc1Cl (single isomer, unassigned) [Example 92, 2-(2,4-Dichloro-phenyl)-N-2,3-dihydro-furo[2,3-b]pyridin-3-yl-propionamide] | 9 nM
7 | O=C(Cc1c(Cl)cc(Cl)cc1C(F)(F)F)NC1COc2ncccc21 (racemic) [Example 33, rac-2-(2,4-Dichloro-6-trifluoromethyl-phenyl)-N-(2,3-dihydro-furo[2,3-b]pyridin-3-yl)-acetamide] | 242 nM
8 | O=C(Cc1c(F)cc(Cl)cc1Cl)NC1CCOc2ncccc21 (racemic) [Example 70, rac-2-(2,4-Dichloro-6-fluoro-phenyl)-N-(3,4-dihydro-2H-pyrano[2,3-b]pyridin-4-yl)-acetamide] | 386 nM
9 | N#Cc1ccccc1CC(=O)NC1COc2ncccc21 (racemic) [Example 10, rac-2-(2-Cyano-phenyl)-N-(2,3-dihydro-furo[2,3-b]pyridin-3-yl)-acetamide] | 2980 nM
10 | O=C(Cc1c(F)cccc1Cl)NC1CCOc2ncccc21 (racemic) [Example 50, rac-2-(2-Chloro-6-fluoro-phenyl)-N-(3,4-dihydro-2H-pyrano[2,3-b]pyridin-4-yl)-acetamide] | 2630 nM
11 | Cc1nccc2c1OCC2NC(=O)Cc1ccc(Cl)cc1Cl (racemic) [Example 100, rac-2-(2,4-Dichloro-phenyl)-N-(7-methyl-2,3-dihydro-furo[2,3-c]pyridin-3-yl)-acetamide] | 52 nM
12 | N#Cc1cc(Cl)cc(Cl)c1CC(=O)NC1COc2ncccc21 (racemic) [Example 37, rac-2-(2,4-Dichloro-6-cyano-phenyl)-N-(2,3-dihydro-furo[2,3-b]pyridin-3-yl)-acetamide] | 324 nM
13 | N#Cc1ccc(CC(=O)NC2CCOc3ncccc32)cc1 (racemic) [Example 45, rac-2-(4-Cyano-phenyl)-N-(3,4-dihydro-2H-pyrano[2,3-b]pyridin-4-yl)-acetamide] | > 6460 nM
14 | COc1ccc(CC(=O)NC2COc3ncccc32)c(OC)c1 (racemic) [Example 19, rac-N-(2,3-Dihydro-furo[2,3-b]pyridin-3-yl)-2-(2,4-dimethoxy-phenyl)-acetamide] | > 6660 nM
15 | Cc1cc(Cl)cc(Cl)c1CC(=O)NC1CCOc2ncccc21 (single isomer, unassigned) [Example 29, 2-(2,4-Dichloro-6-methyl-phenyl)-N-(3,4-dihydro-2H-pyrano[2,3-b]pyridin-4-yl)-acetamide] | 172 nM
16 | O=C(Cc1ccc(Cl)c(Cl)c1)NC1COc2ncccc21 (racemic) [Example 21, rac-2-(3,4-Dichloro-phenyl)-N-(2,3-dihydro-furo[2,3-b]pyridin-3-yl)-acetamide] | 473 nM
17 | Cc1ccc(OCC(=O)NC2CCOc3ncccc32)c(C)n1 (racemic) [Example 61, rac-N-(3,4-Dihydro-2H-pyrano[2,3-b]pyridin-4-yl)-2-(2,6-dimethyl-pyridin-3-yloxy)-acetamide] | 814 nM
18 | O=C(Cc1c(C(F)(F)F)ccc(Cl)c1Cl)NC1COc2ncccc21 (racemic) [Example 71, rac-2-(2,3-Dichloro-6-trifluoromethyl-phenyl)-N-(2,3-dihydro-furo[2,3-b]pyridin-3-yl)-acetamide] | 3230 nM
19 | O=C(Cc1ccc(Oc2ccccc2)cc1)NC1CCOc2ncccc21 (racemic) [Example 48, rac-N-(3,4-Dihydro-2H-pyrano[2,3-b]pyridin-4-yl)-2-(4-phenoxy-phenyl)-acetamide] | 3300 nM
20 | O=C(Cc1cc(Cl)ccc1C(F)(F)F)NC1COc2ncccc21 (racemic) [Example 43, rac-2-(5-Chloro-2-trifluoromethyl-phenyl)-N-(2,3-dihydro-furo[2,3-b]pyridin-3-yl)-acetamide] | 8050 nM
21 | N#Cc1ccc(CC(=O)NC2COc3ncccc32)cc1 (racemic) [Example 13, rac-2-(4-Cyano-phenyl)-N-(2,3-dihydro-furo[2,3-b]pyridin-3-yl)-acetamide] | > 5420 nM
22 | Cc1cc(Cl)cc(Cl)c1CC(=O)NC1CCOc2ncccc21 (single isomer, unassigned) [Example 28, 2-(2,4-Dichloro-6-methyl-phenyl)-N-(3,4-dihydro-2H-pyrano[2,3-b]pyridin-4-yl)-acetamide] | 29 nM
23 | O=C(Cc1cc(F)c(Cl)cc1Cl)NC1CCOc2ncccc21 (racemic) [Example 57, rac-2-(2,4-Dichloro-5-fluoro-phenyl)-N-(3,4-dihydro-2H-pyrano[2,3-b]pyridin-4-yl)-acetamide] | 1470 nM
24 | O=C(NC1COc2ncccc21)C(CO)c1ccc(Cl)cc1Cl (stereo not drawn) [Example 79, 2-(2,4-Dichloro-phenyl)-N-2,3-dihydro-furo[2,3-b]pyridin-3-yl-3-hydroxy-propionamide] | 21 nM
25 | O=C(Cc1cccc(Cl)c1Cl)NC1CCOc2ncccc21 (racemic) [Example 54, rac-2-(2,3-Dichloro-phenyl)-N-(3,4-dihydro-2H-pyrano[2,3-b]pyridin-4-yl)-acetamide] | 67 nM

The remaining lines, values ahead:

Row | IC50 | SMILES
26 | 598 nM | Cc1cc(Cl)cc(Cl)c1CC(=O)NC1COc2cnccc21 (single isomer, unassigned) [Example 101, 2-(2,4-Dichloro-6-methyl-phenyl)-N-2,3-dihydro-furo[2,3-c]pyridin-3-yl-acetamide]
27 | 248 nM | COc1nccc2c1OCC2NC(=O)Cc1ccc(Cl)cc1Cl (racemic) [Example 105, rac-2-(2,4-Dichloro-phenyl)-N-(7-methoxy-2,3-dihydro-furo[2,3-c]pyridin-3-yl)-acetamide]
28 | > 8410 nM | O=C(COc1ccc(Cl)cc1Cl)NC1COc2ncccc21 (racemic) [Example 140, rac-2-(2,4-Dichloro-phenoxy)-N-(2,3-dihydro-furo[2,3-b]pyridin-3-yl)-acetamide]
29 | > 8630 nM | O=C(COc1ccc(Cl)c(Cl)c1)NC1COc2ncccc21 (racemic) [Example 141, rac-2-(3,4-Dichloro-phenoxy)-N-(2,3-dihydro-furo[2,3-b]pyridin-3-yl)-acetamide]
30 | 81 nM | O=C(Cc1cccc(C(F)(F)F)c1Cl)NC1COc2cnc(Cl)cc21 (racemic) [Example 115, rac-N-(5-Chloro-2,3-dihydro-furo[2,3-c]pyridin-3-yl)-2-(2-chloro-3-trifluoromethyl-phenyl)-acetamide]
31 | 137 nM | O=C(NC1COc2ncccc21)C1CCc2cc(Cl)cc(Cl)c21 (stereo not drawn) [Example 130, 5,7-dichloro-N-(2,3-dihydrofuro[2,3-b]pyridin-3-yl)-2,3-dihydro-1H-indene-1-carboxamide]
32 | 6690 nM | Cc1cc(Cl)cc(Cl)c1CC(=O)NC1COc2nccc(C(F)(F)F)c21 (racemic) [Example 151, rac-2-(2,4-Dichloro-6-methyl-phenyl)-N-(4-trifluoromethyl-2,3-dihydro-furo[2,3-b]pyridin-3-yl)-acetamide]
33 | 5.6 nM | Cc1cncc2c1C(NC(=O)Cc1cccc(C(F)(F)F)c1Cl)CO2 (racemic) [Example 128, rac-2-(2-Chloro-3-trifluoromethyl-phenyl)-N-(4-methyl-2,3-dihydro-furo[2,3-c]pyridin-3-yl)-acetamide]
34 | 71 nM | O=C(Cc1ccc(Cl)cc1Cl)NC1COc2c1ccnc2C1CC1 (racemic) [Example 104, rac-N-(7-Cyclopropyl-2,3-dihydro-furo[2,3-c]pyridin-3-yl)-2-(2,4-dichloro-phenyl)-acetamide]
35 | 4690 nM | O=C(NC1COc2ncccc21)C1Cc2ccc(Cl)cc2C1 (stereo not drawn) [Example 149, 5-chloro-N-(2,3-dihydrofuro[2,3-b]pyridin-3-yl)-2,3-dihydro-1H-indene-2-carboxamide]
36 | 123 nM | O=C(Cc1cccc(C(F)(F)F)c1Cl)NC1COc2c1ccc[n+]2[O-] (racemic) [Example 129, rac-2-(2-Chloro-3-trifluoromethyl-phenyl)-N-(7-oxy-2,3-dihydro-furo[2,3-b]pyridin-3-yl)-acetamide]
